{
  "source": "patent US20200407717A1",
  "about": "“METHODS OF MODULATING ANTISENSE ACTIVITY” (Ionis Pharmaceuticals, Inc., priority 2018, published 2020)",
  "key": {"EGF-EGFR signaling": {"tested_on": "EGF-EGFR signaling", "experiment": "EGFR signaling western blot (p-EGFR, p-ERK), A431 cells", "type": "cell-based", "settings": "2 μM for 16 hours", "description": "In order to test the effects of a PS-ASO on EGFR signaling, A431 cells were incubated with compound no. 116847 or no PS-ASO compound for 16 hours. All cells were then treated with EGF prior to being subjected to the pulse-chase protocol described above. Cell lysates were run on a SDS-PAGE gel and analyzed by sequential western blot for phosphorylated EGFR (P-EGFR), total EGFR (T-EGFR), phosphorylated ERK (P-ERK), and total ERK (T-ERK) using the antibodies described above for EGFR, 4370 for P-ERK (Cell Signaling Technology), and 4695 for T-ERK (Cell Signaling Technology).\n110080, 25690, 25699, 395251, or 395254 at 2 μM for 16 hours prior to carrying out the pulse-chase experiment described above."}, "Malat1 RNA": {"tested_on": "Malat1 RNA", "experiment": "Antisense activity by RT-qPCR, Malat1, A431 cells", "type": "cell-based", "description": "A431 cells were grown at 10,000 cells per well and pre-treated with a variety of growth factors to determine if the addition of exogenous growth factors affects antisense activity or uptake of modified antisense oligonucleotides in a cell. The growth factors used were EGF, insulin growth factor (IGF), transforming growth factor (TGF), […] (VEGF), hepatocyte growth factor (HGF), platelet growth factor (PGF) and fibroblasts growth factor (FGF). To test antisense activity, cells were treated for 4 hours with a growth factor or vehicle alone, and then treated with compound no. 25690 (complementary to Drosha), compound no. 395254 (complementary to Malat1), or vehicle alone. RNA was isolated from the cells and Drosha or Malat1 RNA levels were measured by RT-qPCR. Human primer probe set 13816 (forward sequence […], designated herein as SEQ ID NO: 3; reverse sequence […], designated herein as SEQ ID NO: 4; probe sequence […], designated herein as SEQ ID NO: 5) was used to measure Drosha mRNA levels and primer probe set RTS2736 (forward sequence […], designated herein as SEQ ID NO: 6; reverse sequence […], designated herein as SEQ ID NO: 7; probe sequence TGCCACATCGCCACCCCGT, designated herein as SEQ ID NO: 8) was used to measure Malat1 RNA levels. Drosha and Malat1 RNA levels were normalized to total RNA content, as measured by RIBOGREEN®. Results are presented in the tables below as normalized RNA levels, relative to untreated control cells.\nA431 cells were treated with EGF or TGF at 200 ng/mL in the presence or absence of 1 μM of the EGFR tyrosine kinase inhibitor PD174265. The cells were then treated with compound no. 25690 or compound no. 395254 as in Example 8. Total RNA was isolated and analyzed by RT-qPCR, as in Example 8.\nFollowing siRNA treatment, cells were treated with compound no. 25690 or compound no. 395254 in the presence or absence of EGF. 16 hours after treatment with a PS-ASO with or without EGF, cells were harvested, and RNA levels were analyzed via RT-qPCR as in Example 8."}},
  "note": "e = 2'-O-(2-methoxyethyl) (MOE); d = 2'-deoxy (DNA)",
  "data": [
    {"sequence": "AGGAAGGAAGCTGGCGATCT (sugars from the 5' end e5 d10 e5, all phosphorothioate, methylation of C not given here) [compound 25690]", "values": [
      {"measurement": "EGFR signaling", "setting": "EGF-EGFR signaling", "value": "not be impacted"},
      {"measurement": "Malat1 RNA (% Control)", "setting": "Malat1 RNA; 2.0 nM, Control, Table 19", "value": 100.0, "unit": "% Control"},
      {"measurement": "Malat1 RNA (% Control)", "setting": "Malat1 RNA; 2.0 nM, EGF+PD174265", "value": 100.0, "unit": "% Control"},
      {"measurement": "Malat1 RNA (% Control)", "setting": "Malat1 RNA; 2.0 nM, EGF, Table 19", "value": 100.0, "unit": "% Control"},
      {"measurement": "Malat1 RNA (% Control)", "setting": "Malat1 RNA; 3.9 nM, Control, Table 19", "value": 99.2, "unit": "% Control"},
      {"measurement": "Malat1 RNA (% Control)", "setting": "Malat1 RNA; 3.9 nM, EGF+PD174265", "value": 110.0, "unit": "% Control"},
      {"measurement": "Malat1 RNA (% Control)", "setting": "Malat1 RNA; 3.9 nM, EGF, Table 19", "value": 105.0, "unit": "% Control"},
      {"measurement": "Malat1 RNA (% Control)", "setting": "Malat1 RNA; 7.8 nM, Control, Table 19", "value": 98.2, "unit": "% Control"},
      {"measurement": "Malat1 RNA (% Control)", "setting": "Malat1 RNA; 7.8 nM, EGF+PD174265", "value": 97.2, "unit": "% Control"},
      {"measurement": "Malat1 RNA (% Control)", "setting": "Malat1 RNA; 7.8 nM, EGF, Table 19", "value": 78.2, "unit": "% Control"},
      {"measurement": "Malat1 RNA (% Control)", "setting": "Malat1 RNA; 15.6 nM, Control, Table 19", "value": 72.3, "unit": "% Control"},
      {"measurement": "Malat1 RNA (% Control)", "setting": "Malat1 RNA; 15.6 nM, EGF+PD174265", "value": 61.2, "unit": "% Control"},
      {"measurement": "Malat1 RNA (% Control)", "setting": "Malat1 RNA; 15.6 nM, EGF, Table 19", "value": 60.1, "unit": "% Control"},
      {"measurement": "Malat1 RNA (% Control)", "setting": "Malat1 RNA; 31.3 nM, Control, Table 19", "value": 64.4, "unit": "% Control"},
      {"measurement": "Malat1 RNA (% Control)", "setting": "Malat1 RNA; 31.3 nM, EGF+PD174265", "value": 59.8, "unit": "% Control"},
      {"measurement": "Malat1 RNA (% Control)", "setting": "Malat1 RNA; 31.3 nM, EGF, Table 19", "value": 40.5, "unit": "% Control"},
      {"measurement": "Malat1 RNA (% Control)", "setting": "Malat1 RNA; 62.5 nM, Control, Table 19", "value": 59.6, "unit": "% Control"},
      {"measurement": "Malat1 RNA (% Control)", "setting": "Malat1 RNA; 62.5 nM, EGF+PD174265", "value": 50.2, "unit": "% Control"},
      {"measurement": "Malat1 RNA (% Control)", "setting": "Malat1 RNA; 62.5 nM, EGF, Table 19", "value": 43.9, "unit": "% Control"},
      {"measurement": "Malat1 RNA (% Control)", "setting": "Malat1 RNA; 125 nM, Control, Table 19", "value": 46.2, "unit": "% Control"},
      {"measurement": "Malat1 RNA (% Control)", "setting": "Malat1 RNA; 125 nM, EGF+PD174265", "value": 39.6, "unit": "% Control"},
      {"measurement": "Malat1 RNA (% Control)", "setting": "Malat1 RNA; 125 nM, EGF, Table 19", "value": 25.9, "unit": "% Control"},
      {"measurement": "Malat1 RNA (% Control)", "setting": "Malat1 RNA; 250 nM, Control, Table 19", "value": 36.1, "unit": "% Control"},
      {"measurement": "Malat1 RNA (% Control)", "setting": "Malat1 RNA; 250 nM, EGF+PD174265", "value": 45.6, "unit": "% Control"},
      {"measurement": "Malat1 RNA (% Control)", "setting": "Malat1 RNA; 250 nM, EGF, Table 19", "value": 18.9, "unit": "% Control"},
      {"measurement": "Malat1 RNA (% Control)", "setting": "Malat1 RNA; 500 nM, Control, Table 19", "value": 35.5, "unit": "% Control"},
      {"measurement": "Malat1 RNA (% Control)", "setting": "Malat1 RNA; 500 nM, EGF+PD174265", "value": 42.5, "unit": "% Control"},
      {"measurement": "Malat1 RNA (% Control)", "setting": "Malat1 RNA; 500 nM, EGF, Table 19", "value": 14.5, "unit": "% Control"},
      {"measurement": "Malat1 RNA (% Control)", "setting": "Malat1 RNA; 1000 nM, Control, Table 19", "value": 22.3, "unit": "% Control"},
      {"measurement": "Malat1 RNA (% Control)", "setting": "Malat1 RNA; 1000 nM, EGF+PD174265", "value": 22.3, "unit": "% Control"},
      {"measurement": "Malat1 RNA (% Control)", "setting": "Malat1 RNA; 1000 nM, EGF, Table 19", "value": 15.2, "unit": "% Control"},
      {"measurement": "Malat1 RNA (% Control)", "setting": "Malat1 RNA; 2000 nM, Control, Table 19", "value": 19.2, "unit": "% Control"},
      {"measurement": "Malat1 RNA (% Control)", "setting": "Malat1 RNA; 2000 nM, EGF+PD174265", "value": 15.3, "unit": "% Control"},
      {"measurement": "Malat1 RNA (% Control)", "setting": "Malat1 RNA; 2000 nM, EGF, Table 19", "value": 12.4, "unit": "% Control"},
      {"measurement": "Malat1 RNA (% Control)", "setting": "Malat1 RNA; 4000 nM, Control, Table 19", "value": 17.2, "unit": "% Control"},
      {"measurement": "Malat1 RNA (% Control)", "setting": "Malat1 RNA; 4000 nM, EGF+PD174265", "value": 13.2, "unit": "% Control"},
      {"measurement": "Malat1 RNA (% Control)", "setting": "Malat1 RNA; 4000 nM, EGF, Table 19", "value": 10.2, "unit": "% Control"},
      {"measurement": "IC50", "setting": "Malat1 RNA; Control, Table 19", "value": "43 ± 5.7", "unit": "nM"},
      {"measurement": "IC50", "setting": "Malat1 RNA; EGF 200 ng/mL + 1 μM PD174265, Table 19", "value": "47 ± 5.3", "unit": "nM"},
      {"measurement": "IC50", "setting": "Malat1 RNA; EGF 200 ng/mL, Table 19", "value": "19 ± 3", "unit": "nM"}
    ]}
  ]
}
